# From patent publication US10538535B2, “Antitumoral compounds” (priority 2017, dated 2020)
# Where two headings read alike, the source gives them in different places.
# Tests used:
# [1] = tested on: A549 cells; assay: cells; conditions: Homo sapiens, A549, 72 h; for CC50: read-out: LC50
# Procedure, shortened: (§1)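 Human cancer lines grown in DMEM plus 10% FBS at 37° C. were plated at 5000 cells/well and left 18 hours before dosing. Test compounds (10 to 0.003 μg/mL, triplicates) acted for 72 hours, after which glutaraldehyde-fixed cells were stained with sulforhodamine B.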
# [2] = tested on: HT29 cells; assay: cells; conditions: Homo sapiens, HT-29, 72 h; for CC50: read-out: LC50
# Procedure, shortened: as §1
# [3] = tested on: MDA-MB-231 cells; assay: cells; conditions: Homo sapiens, MDA-MB-231, 72 h
# Procedure, shortened: as §1
# [4] = tested on: PSN1 cells; assay: cells; conditions: Homo sapiens, PSN1, 72 h
# Procedure, shortened: as §1
# [5] = tested on: solid and non-solid tumour cell lines; conditions: cited from earlier work
# [6] = tested on: xenografted human tumor cell lines (breast, kidney and ovarian cancer); conditions: xenografted human tumor cell lines in mice, such as breast; cited from earlier work
# [7] = MTD (Maximum Tolerated Dose) determination, single iv administration; format: in vivo; conditions: female, mouse, in vivo; mice; iv/SD
# Source text: (§2) Female CD-1 or Athymic Nude-Fox1 nu/nu mice (Envigo) were utilized for all experiments. […] Animals were acclimated for five days prior to being individually tattoo-identified. Animal protocols were reviewed and approved according to the regional Institutional Animal Care and Use Committees.
# (§3) Mice were randomly allocated into experimental groups and intravenously administered, once for the MTD (Maximum Tolerated Dose) determination or one administration a week during three consecutive weeks, for the MTMD (Maximum Tolerated Multiple Dose) determination study. The animals were administered with white formulation or with compound dissolved in the experimental formulation at different concentrations. The volume administered was always 10 mL/kg. Once administered, animals were monitored for clinical signs of systemic toxicity, changes in body weight and mortality up to 14 days after the administration.
# [8] = MTMD (Maximum Tolerated Multiple Dose) determination, iv weekly x3; format: in vivo; conditions: mice; iv/Q7dx3
# Source text: as §2, §3
# [9] = tested on: DU-145 tumors
# Description: Female athymic nu/nu mice (Harlan Laboratories Models, S. L. Barcelona, Spain or Envigo, Spain) were utilized for all experiments. Animal were housed in individually ventilated cages Sealsafe® Plus, Techniplast S.P.A.), up to ten per cage on a 12-hour light-dark cycle at 21-23° C. and 40-60% humidity. Mice were allowed free access to irradiated standard rodent diet (Tecklad 2914C) and sterilized water. Animals were acclimated for at least 5 days prior to tumor implantation with a tumor cell suspension.
# Culture cells were passaged every 3 to 5 days upon reaching confluence Each male athymic mice was subcutaneously implanted (on the right flank using a 26 G needle and a 1 cc syringe) at 4-6 weeks of age with 5×10^6 DU-145 cells suspended in 0.05 mL of a solution consisting of 50% Matrigel® Matrix (Corning Incorporated Life Sciences) and 50% medium without serum or antibiotics.
# Treatment tolerability was assessed by monitoring body weight evolution, clinical signs of systemic toxicity, as well as evidences of local damage in the injection site.
# In xenograft studies with other cell lines: • Tumor volume was calculated using the equation (a·b^2)/2, where a: length (longest diameter) and b: width (shortest diameter) were measured in mm by using digital caliper (Fowler Sylvac, S235PAT).
# Treatments producing >20% lethality and/or 20% net body weight loss were considered toxic.
# Tables and figures summarize the data obtained from complete experimental groups, i.e. those groups keeping the initial number of animals, n=8-10.
smiles,measurement,setting,value
COc1ccc2[nH]c3c(c2c1)CCN[C@]31CS[C@@H]2c3c(OC(C)=O)c(C)c4c(c3[C@H](COC1=O)N1[C@@H]2[C@H]2c3c(cc(C)c(OC)c3O)C[C@@H]([C@@H]1O)N2C)OCO4 [PM01183],GI50,[1],3.31 nM
same,CC50,[1],> 127 nM
same,IC (TGI),[1]; read-out: TGI,3.57 nM
same,GI50,[2],1.91 nM
same,CC50,[2],> 127 nM
same,IC (TGI),[2]; read-out: TGI,4.46 nM
same,GI50,[3],2.29 nM
same,CC50,[3]; read-out: LC50,10.2 nM
same,IC (TGI),[3]; read-out: TGI,3.95 nM
same,GI50,[4],3.19 nM
same,CC50,[4]; read-out: LC50,5.73 nM
same,IC (TGI),[4]; read-out: TGI,3.95 nM
same,in vitro activity,[5],highly potent in vitro activity
same,in vivo activity,[6],significant in vivo activity
COc1c(C)cc2c(c1O)[C@@H]1[C@@H]3[C@@H]4SC[C@]5(N[C@H](CO)Cc6c5[nH]c5ccccc65)C(=O)OC[C@@H](c5c6c(c(C)c(OC(C)=O)c54)OCO6)N3[C@@H](O)[C@H](C2)N1C [Compound 4-S],CC50,[1],> 127 nM
same,CC50,[2],> 127 nM
same,MTD at 14 days,[7],1 mg/kg
same,MTMD,[8],1.25 mg/kg
same,Median Tumor Volume,"[9]; Day 0, 4-S 1.00 mg/Kg iv Days 0, 7 and 14",126.2 mm^3
same,Median Tumor Volume,"[9]; Day 3, 4-S 1.00 mg/Kg iv Days 0, 7 and 14",102.4 mm^3
same,Median Tumor Volume,"[9]; Day 5, 4-S 1.00 mg/Kg iv Days 0, 7 and 14",119.5 mm^3
same,Median Tumor Volume,"[9]; Day 7, 4-S 1.00 mg/Kg iv Days 0, 7 and 14",149.5 mm^3
same,Median Tumor Volume,"[9]; Day 10, 4-S 1.00 mg/Kg iv Days 0, 7 and 14",216.8 mm^3
same,Median Tumor Volume,"[9]; Day 12, 4-S 1.00 mg/Kg iv Days 0, 7 and 14",181.4 mm^3
same,Median Tumor Volume,"[9]; Day 14, 4-S 1.00 mg/Kg iv Days 0, 7 and 14",237.7 mm^3
same,Median Tumor Volume,"[9]; Day 17, 4-S 1.00 mg/Kg iv Days 0, 7 and 14",204.4 mm^3
same,Median Tumor Volume,"[9]; Day 19, 4-S 1.00 mg/Kg iv Days 0, 7 and 14",210.9 mm^3
same,Median Tumor Volume,"[9]; Day 24, 4-S 1.00 mg/Kg iv Days 0, 7 and 14",300.0 mm^3
same,Median Tumor Volume,"[9]; Day 26, 4-S 1.00 mg/Kg iv Days 0, 7 and 14",378.4 mm^3
same,Median Tumor Volume,"[9]; Day 28, 4-S 1.00 mg/Kg iv Days 0, 7 and 14",587.0 mm^3
same,Median Tumor Volume,"[9]; Day 31, 4-S 1.00 mg/Kg iv Days 0, 7 and 14",650.3 mm^3
